Results: US12371428B2 (Exelixis, Inc., priority 2019, dated 2025)

What was measured:
Type in all cases: cell-based
[1] = biological target: AXL (phospho-AXL, Gas6-stimulated A-172 glioblastoma cells) (Homo sapiens (Human), UniProt P30530); test: AXL autophosphorylation ELISA in A-172 cells (Example E); conditions: cellular activity; AXL autophosphorylation ELISA in A-172 cells; read-out: Axl IC50
Summary of the method: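 Phospho-AXL was measured by ELISA in lysates of Gas6-stimulated A-172 cells, starved 24 h in serum-free medium and exposed 1 h to an 8-point compound dilution at 0.3% DMSO.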

[2] = biological target: Met (phospho-Met, HGF-stimulated PC-3 prostate cancer cells) (Homo sapiens (Human), UniProt P08581); test: Met autophosphorylation ELISA in PC-3 cells (Example F); conditions: cellular activity; Met autophosphorylation ELISA in PC-3 cells; read-out: c-Met IC50
Chain of Met (phospho-Met, HGF-stimulated PC-3 prostate cancer cells) (P08581 25-1390): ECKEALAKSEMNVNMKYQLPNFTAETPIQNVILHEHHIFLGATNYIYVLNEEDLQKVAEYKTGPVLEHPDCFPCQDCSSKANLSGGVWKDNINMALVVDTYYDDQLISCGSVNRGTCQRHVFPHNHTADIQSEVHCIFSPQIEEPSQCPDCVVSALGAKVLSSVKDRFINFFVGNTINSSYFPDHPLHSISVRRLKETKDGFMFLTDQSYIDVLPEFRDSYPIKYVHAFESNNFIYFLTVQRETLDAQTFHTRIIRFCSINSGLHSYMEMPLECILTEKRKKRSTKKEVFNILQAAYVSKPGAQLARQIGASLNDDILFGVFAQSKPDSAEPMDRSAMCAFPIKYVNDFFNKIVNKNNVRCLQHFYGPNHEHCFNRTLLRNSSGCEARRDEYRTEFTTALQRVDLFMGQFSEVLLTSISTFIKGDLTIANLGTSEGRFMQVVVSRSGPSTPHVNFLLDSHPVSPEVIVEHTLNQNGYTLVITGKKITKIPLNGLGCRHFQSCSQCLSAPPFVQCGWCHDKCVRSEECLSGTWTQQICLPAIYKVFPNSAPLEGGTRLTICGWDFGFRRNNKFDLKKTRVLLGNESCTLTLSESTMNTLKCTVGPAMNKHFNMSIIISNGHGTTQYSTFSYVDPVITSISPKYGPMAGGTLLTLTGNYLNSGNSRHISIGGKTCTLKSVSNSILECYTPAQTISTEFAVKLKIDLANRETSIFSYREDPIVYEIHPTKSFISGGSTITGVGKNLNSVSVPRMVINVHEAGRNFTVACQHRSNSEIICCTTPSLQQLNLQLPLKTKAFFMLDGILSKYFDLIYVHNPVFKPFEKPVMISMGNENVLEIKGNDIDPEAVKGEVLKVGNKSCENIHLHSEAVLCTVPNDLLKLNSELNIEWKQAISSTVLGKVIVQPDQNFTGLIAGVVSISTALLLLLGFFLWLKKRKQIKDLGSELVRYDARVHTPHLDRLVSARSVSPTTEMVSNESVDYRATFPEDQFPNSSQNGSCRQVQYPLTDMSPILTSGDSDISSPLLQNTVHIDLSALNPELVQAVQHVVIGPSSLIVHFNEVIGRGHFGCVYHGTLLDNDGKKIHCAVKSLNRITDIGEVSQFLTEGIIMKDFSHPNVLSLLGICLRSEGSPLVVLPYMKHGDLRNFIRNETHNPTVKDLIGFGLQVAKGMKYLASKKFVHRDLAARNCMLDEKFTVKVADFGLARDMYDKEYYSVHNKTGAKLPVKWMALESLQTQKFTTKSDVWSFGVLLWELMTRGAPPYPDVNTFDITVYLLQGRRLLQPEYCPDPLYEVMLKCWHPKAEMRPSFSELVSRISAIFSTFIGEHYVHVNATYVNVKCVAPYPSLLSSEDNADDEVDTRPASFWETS
Summary of the method: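 PC-3 cells, serum-starved 3 h, were treated with compounds (8-point dose curve, 0.3% DMSO final) for 1 h, then stimulated with 100 ng/mL recombinant human HGF for 10 min. Lysate phospho-Met (panTyr) was quantified by sandwich ELISA; IC50 from 4-parameter logistic fit.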

[3] = biological target: KDR (phospho-KDR, VEGF165-stimulated HUVEC cells) (Homo sapiens (Human), UniProt P35968); test: KDR autophosphorylation ELISA in HUVEC cells (Example G); conditions: cellular activity; KDR autophosphorylation ELISA in HUVEC cells
Chain of KDR (phospho-KDR, VEGF165-stimulated HUVEC cells) (P35968 20-1356): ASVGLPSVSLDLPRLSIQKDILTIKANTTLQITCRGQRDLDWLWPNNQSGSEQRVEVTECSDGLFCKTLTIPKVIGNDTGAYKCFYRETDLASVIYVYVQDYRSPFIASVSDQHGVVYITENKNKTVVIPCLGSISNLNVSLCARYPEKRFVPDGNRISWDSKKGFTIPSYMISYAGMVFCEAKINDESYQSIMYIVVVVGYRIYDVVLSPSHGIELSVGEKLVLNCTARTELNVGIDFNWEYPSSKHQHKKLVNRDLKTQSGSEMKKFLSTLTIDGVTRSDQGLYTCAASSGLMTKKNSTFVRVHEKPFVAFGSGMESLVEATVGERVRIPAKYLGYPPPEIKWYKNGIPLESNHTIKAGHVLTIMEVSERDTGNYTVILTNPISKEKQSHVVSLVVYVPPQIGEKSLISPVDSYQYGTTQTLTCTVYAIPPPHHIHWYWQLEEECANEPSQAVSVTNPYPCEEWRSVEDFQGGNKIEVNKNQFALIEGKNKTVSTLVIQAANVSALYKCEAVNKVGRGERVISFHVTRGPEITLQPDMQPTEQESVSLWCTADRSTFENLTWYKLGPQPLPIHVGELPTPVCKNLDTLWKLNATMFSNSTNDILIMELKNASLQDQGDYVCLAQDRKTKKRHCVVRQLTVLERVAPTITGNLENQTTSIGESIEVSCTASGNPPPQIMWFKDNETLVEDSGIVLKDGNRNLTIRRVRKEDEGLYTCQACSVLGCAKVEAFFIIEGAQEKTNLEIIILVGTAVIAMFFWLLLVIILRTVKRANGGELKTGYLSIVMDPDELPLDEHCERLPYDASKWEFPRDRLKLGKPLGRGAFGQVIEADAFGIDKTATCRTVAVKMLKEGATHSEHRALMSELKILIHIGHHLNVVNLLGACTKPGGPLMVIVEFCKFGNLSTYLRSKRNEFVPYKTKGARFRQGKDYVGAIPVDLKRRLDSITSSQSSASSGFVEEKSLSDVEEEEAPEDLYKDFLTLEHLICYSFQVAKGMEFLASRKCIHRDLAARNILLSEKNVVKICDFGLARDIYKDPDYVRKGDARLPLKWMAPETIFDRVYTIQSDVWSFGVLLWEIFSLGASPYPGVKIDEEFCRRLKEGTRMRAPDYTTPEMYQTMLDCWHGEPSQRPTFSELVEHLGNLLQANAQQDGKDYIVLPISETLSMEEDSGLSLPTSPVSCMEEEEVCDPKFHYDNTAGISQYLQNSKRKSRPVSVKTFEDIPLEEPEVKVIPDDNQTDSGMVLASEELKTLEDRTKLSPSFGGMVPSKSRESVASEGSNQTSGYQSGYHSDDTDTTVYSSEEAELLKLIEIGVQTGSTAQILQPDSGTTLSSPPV
Summary of the method: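 Inhibition of VEGF165-driven KDR autophosphorylation is measured in primary human umbilical vein endothelial cells after 24 h serum deprivation. Compound preincubation lasts 1 h before a 5-minute challenge with 100 ng/mL ligand, and phosphorylated receptor is then measured by ELISA in the lysates.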

[4] = biological target: Mer (phospho-Mer, MERTK-transfected 293A cells) (Homo sapiens (Human), UniProt Q12866); test: Mer autophosphorylation ELISA in transient transfected 293A cells (Example H); conditions: cellular activity; Mer autophosphorylation ELISA in transient transfected 293A cells
Chain of Mer (phospho-Mer, MERTK-transfected 293A cells) (Q12866 21-999): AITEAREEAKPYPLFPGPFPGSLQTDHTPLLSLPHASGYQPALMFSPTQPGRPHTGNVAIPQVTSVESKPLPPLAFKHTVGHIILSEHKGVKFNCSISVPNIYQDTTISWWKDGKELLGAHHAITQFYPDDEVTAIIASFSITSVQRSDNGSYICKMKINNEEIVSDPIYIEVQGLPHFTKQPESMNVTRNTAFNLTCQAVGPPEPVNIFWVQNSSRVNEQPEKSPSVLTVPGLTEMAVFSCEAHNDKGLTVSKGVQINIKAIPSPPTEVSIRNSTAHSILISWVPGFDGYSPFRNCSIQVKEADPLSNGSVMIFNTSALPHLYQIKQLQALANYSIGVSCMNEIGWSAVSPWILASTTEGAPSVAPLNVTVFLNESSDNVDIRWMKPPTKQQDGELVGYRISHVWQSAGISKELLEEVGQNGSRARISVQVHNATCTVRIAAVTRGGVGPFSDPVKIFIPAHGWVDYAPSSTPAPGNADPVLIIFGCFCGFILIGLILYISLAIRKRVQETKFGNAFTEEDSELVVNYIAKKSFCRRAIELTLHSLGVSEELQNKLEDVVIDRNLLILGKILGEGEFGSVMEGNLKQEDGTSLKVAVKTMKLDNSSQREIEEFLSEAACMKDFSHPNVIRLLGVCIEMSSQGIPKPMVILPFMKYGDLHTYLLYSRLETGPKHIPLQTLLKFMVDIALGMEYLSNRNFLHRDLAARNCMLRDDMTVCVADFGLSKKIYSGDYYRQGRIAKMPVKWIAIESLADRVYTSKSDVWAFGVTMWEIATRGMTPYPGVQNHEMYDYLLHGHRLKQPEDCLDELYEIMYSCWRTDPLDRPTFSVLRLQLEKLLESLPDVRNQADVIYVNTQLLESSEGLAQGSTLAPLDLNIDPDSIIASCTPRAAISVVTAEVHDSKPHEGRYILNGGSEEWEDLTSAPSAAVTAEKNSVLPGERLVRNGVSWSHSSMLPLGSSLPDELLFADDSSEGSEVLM
Summary of the method: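 IC50 from 4-parameter logistic fit of phospho-Mer levels, quantified by ELISA against a phospho-Mer standard in lysates of MERTK-transfected 293A cells. Cells exposed 1 h to 8-point serial dilutions, serum-free, 0.3% DMSO; controls: DMSO (100%) and reference inhibitor (0%).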

Chain of AXL (phospho-AXL, Gas6-stimulated A-172 glioblastoma cells) (P30530 26-894): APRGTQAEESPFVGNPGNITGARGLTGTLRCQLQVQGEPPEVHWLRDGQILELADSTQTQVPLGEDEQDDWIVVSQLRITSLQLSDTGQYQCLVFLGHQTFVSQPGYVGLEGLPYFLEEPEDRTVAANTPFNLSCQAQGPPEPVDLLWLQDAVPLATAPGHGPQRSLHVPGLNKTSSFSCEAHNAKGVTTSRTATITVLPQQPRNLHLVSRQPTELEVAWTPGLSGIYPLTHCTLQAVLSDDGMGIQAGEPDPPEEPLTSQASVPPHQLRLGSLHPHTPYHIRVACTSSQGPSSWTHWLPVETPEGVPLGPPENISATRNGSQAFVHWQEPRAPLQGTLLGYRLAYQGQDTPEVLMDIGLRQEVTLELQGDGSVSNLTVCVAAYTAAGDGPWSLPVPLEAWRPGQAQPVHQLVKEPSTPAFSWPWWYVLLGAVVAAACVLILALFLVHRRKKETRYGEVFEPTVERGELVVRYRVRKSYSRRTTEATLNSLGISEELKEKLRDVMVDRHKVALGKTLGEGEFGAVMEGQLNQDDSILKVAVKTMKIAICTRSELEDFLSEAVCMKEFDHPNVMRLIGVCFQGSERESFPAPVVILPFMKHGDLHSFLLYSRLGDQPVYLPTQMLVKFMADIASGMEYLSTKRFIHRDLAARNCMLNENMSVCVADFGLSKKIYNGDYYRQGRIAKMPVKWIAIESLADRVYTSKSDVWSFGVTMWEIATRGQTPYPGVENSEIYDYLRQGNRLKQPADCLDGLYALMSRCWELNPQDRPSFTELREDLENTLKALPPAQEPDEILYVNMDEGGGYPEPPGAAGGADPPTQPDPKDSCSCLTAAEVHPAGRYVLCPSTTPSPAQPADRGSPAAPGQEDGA

Row | IC50 [1] | IC50 [2] | IC50 [3] | IC50 [4] | SMILES
1 | < 100 nM | < 100 nM | 100 to 300 nM | < 100 nM | COc1cc2nccc(Oc3ccc(NC(=O)c4cn5c(c(-c6ccc(F)cc6)c4=O)COCC5)cc3)c2nc1OC [Compound 660, N-[4-[(6,7-dimethoxy-1,5-naphthyridin-4-yl)oxy]phenyl]-9-(4-fluorophenyl)-8-oxo-3,4-dihydro-1H-pyrido[2,1-c][1,4]oxazine-7-carboxamide]
2 | < 100 nM | < 100 nM | 100 to 300 nM | < 100 nM | COc1cc2c(Oc3ccc(NC(=O)c4cnc(C)n(-c5ccc(F)cc5)c4=O)cc3F)ccnc2cn1 [Compound 499, N-[3-fluoro-4-[(6-methoxy-1,7-naphthyridin-4-yl)oxy]phenyl]-1-(4-fluorophenyl)-2-methyl-6-oxopyrimidine-5-carboxamide]
3 | < 100 nM | < 100 nM | > 300 nM | < 100 nM | COc1cc2nccc(Oc3ccc(NC(=O)c4cc(C(C)=O)cn(-c5ccc(F)cc5)c4=O)cc3)c2nc1OC [Compound 359, 5-acetyl-N-[4-[(6,7-dimethoxy-1,5-naphthyridin-4-yl)oxy]phenyl]-1-(4-fluorophenyl)-2-oxopyridine-3-carboxamide]
4 | < 100 nM | < 100 nM | > 300 nM | < 100 nM | COCCOc1cnc2c(Oc3ccc(NC(=O)c4cc(C(C)=O)c(C)n(-c5ccc(F)cc5)c4=O)cc3F)ccnc2c1 [Compound 758, 5-acetyl-N-[3-fluoro-4-[[7-(2-methoxyethoxy)-1,5-naphthyridin-4-yl]oxy]phenyl]-1-(4-fluorophenyl)-6-methyl-2-oxopyridine-3-carboxamide]
5 | < 100 nM | < 100 nM | < 100 nM | < 100 nM | COc1nc2c(Oc3ccc(NC(=O)c4c(C)nc(C)c(-c5ccc(F)cc5C)c4O)cc3F)ccnc2cc1C [Compound 471, N-[3-fluoro-4-[(6-methoxy-7-methyl-1,5-naphthyridin-4-yl)oxy]phenyl]-5-(4-fluoro-2-methylphenyl)-4-hydroxy-2,6-dimethylpyridine-3-carboxamide]
6 | < 100 nM | < 100 nM | < 100 nM | < 100 nM | CNC(=O)c1cc2nccc(Oc3cc(F)c(NC(=O)c4c(C)nc(C)c(-c5ccc(F)cc5C)c4O)cc3F)c2cc1C [Compound 752, 4-[2,5-difluoro-4-[[5-(4-fluoro-2-methylphenyl)-4-hydroxy-2,6-dimethylpyridine-3-carbonyl]amino]phenoxy]-N,6-dimethylquinoline-7-carboxamide]
7 | < 100 nM | < 100 nM | < 100 nM | < 100 nM | COc1cc2nccc(Oc3ccc(NC(=O)c4cn5c(c(-c6ccc(F)cc6)c4=O)OC(C)C5)cc3F)c2nc1OC (centres unmarked) [Compound 759, N-[4-[(6,7-dimethoxy-1,5-naphthyridin-4-yl)oxy]-3-fluorophenyl]-8-(4-fluorophenyl)-2-methyl-7-oxo-2,3-dihydro-[1,3]oxazolo[3,2-a]pyridine-6-carboxamide]
8 | < 100 nM | < 100 nM | > 300 nM | < 100 nM | COc1cc2nccc(Oc3ccc(NC(=O)c4c(OC)c(C(C)=O)cn(-c5ccc(F)cc5)c4=O)cc3)c2nc1OC [Compound 753, 5-acetyl-N-[4-[(6,7-dimethoxy-1,5-naphthyridin-4-yl)oxy]phenyl]-1-(4-fluorophenyl)-4-methoxy-2-oxopyridine-3-carboxamide]
9 | < 100 nM | < 100 nM | 100 to 300 nM | < 100 nM | COc1cc2nccc(Oc3ccc(NC(=O)c4c(C)n(CC(F)F)cc(-c5ccc(F)cc5)c4=O)cc3F)c2nc1OC [Compound 702, 1-(2,2-difluoroethyl)-N-[4-[(6,7-dimethoxy-1,5-naphthyridin-4-yl)oxy]-3-fluorophenyl]-5-(4-fluorophenyl)-2-methyl-4-oxopyridine-3-carboxamide]
10 | < 100 nM | < 100 nM | < 100 nM | < 100 nM | COCc1nc(C)c(-c2ccc(F)cc2)c(O)c1C(=O)Nc1ccc(Oc2ccnc3cnc(OC)cc23)c(F)c1 [Compound 501, N-[3-Fluoro-4-[(6-methoxy-1,7-naphthyridin-4-yl)oxy]phenyl]-5-(4-fluorophenyl)-4-hydroxy-2-(methoxymethyl)-6-methylpyridine-3-carboxamide]

The next lines start with the compound.

Row | SMILES | IC50 [1] | IC50 [2] | IC50 [3] | IC50 [4]
11 | COc1cc2nccc(Oc3ccc(NC(=O)c4cn(C(C)(C)CO)cc(-c5ccc(F)cc5)c4=O)cc3F)c2cc1OC [Compound 57, N-[4-(6,7-Dimethoxyquinolin-4-yl)oxy-3-fluorophenyl]-5-(4-fluorophenyl)-1-(1-hydroxy-2-methylpropan-2-yl)-4-oxopyridine-3-carboxamide] | < 100 nM | < 100 nM | > 300 nM | < 100 nM
12 | COc1cc2nccc(Oc3ccc(NC(=O)c4c(C)n(C)c(C)c(-c5ccc(F)cc5C)c4=O)cc3F)c2nc1OC [Compound 774, N-[4-[(6,7-dimethoxy-1,5-naphthyridin-4-yl)oxy]-3-fluorophenyl]-5-(4-fluoro-2-methylphenyl)-1,2,6-trimethyl-4-oxopyridine-3-carboxamide] | < 100 nM | < 100 nM | 100 to 300 nM | < 100 nM
13 | C=C(C)c1cnc2c(Oc3ccc(NC(=O)c4cnc(C)n(-c5ccc(F)cc5)c4=O)cc3F)ccnc2c1 [Compound 465, 1-(4-fluorophenyl)-N-[3-fluoro-4-[(7-prop-1-en-2-yl-1,5-naphthyridin-4-yl)oxy]phenyl]-2-methyl-6-oxopyrimidine-5-carboxamide] | < 100 nM | < 100 nM | 100 to 300 nM | < 100 nM
14 | CNC(=O)Cc1nc2c(Oc3ccc(NC(=O)c4cnc(C)c(-c5ccc(F)cc5)c4O)cc3F)ccnc2cc1OC [Compound 570, N-[3-Fluoro-4-[[7-methoxy-6-[2-(methylamino)-2-oxoethyl]-1,5-naphthyridin-4-yl]oxy]phenyl]-5-(4-fluorophenyl)-4-hydroxy-6-methylpyridine-3-carboxamide] | < 100 nM | < 100 nM | < 100 nM | < 100 nM
15 | COc1cc2nccc(Oc3ccc(NC(=O)c4n[nH]c(C)c(-c5ccc(F)cc5)c4=O)cc3)c2nc1OC [Compound 253, N-[4-[(6,7-Dimethoxy-1,5-naphthyridin-4-yl)oxy]phenyl]-5-(4-fluorophenyl)-6-methyl-4-oxo-1H-pyridazine-3-carboxamide] | < 100 nM | < 100 nM | < 100 nM | < 100 nM
16 | COc1cnc2c(Oc3ccc(NC(=O)c4cnc(C5CC5)c(-c5ccc(F)cc5)c4O)cc3F)ccnc2c1 [Compound 658, 6-cyclopropyl-N-[3-fluoro-4-[(7-methoxy-1,5-naphthyridin-4-yl)oxy]phenyl]-5-(4-fluorophenyl)-4-hydroxypyridine-3-carboxamide] | < 100 nM | < 100 nM | > 300 nM | < 100 nM
17 | COc1cnc2c(Oc3ccc(NC(=O)c4cn5c(c(-c6ccc(F)cc6)c4=O)COCC5)cc3F)ccnc2c1 [Compound 661, N-[3-fluoro-4-[(7-methoxy-1,5-naphthyridin-4-yl)oxy]phenyl]-9-(4-fluorophenyl)-8-oxo-3,4-dihydro-1H-pyrido[2,1-c][1,4]oxazine-7-carboxamide] | < 100 nM | < 100 nM | > 300 nM | < 100 nM
18 | COCCOc1cc2c(Oc3ccc(NC(=O)c4cn(C)c(C)c(-c5ccc(F)cc5)c4=O)cc3F)ccnc2nc1OC [Compound 760, N-[3-fluoro-4-[[7-methoxy-6-(2-methoxyethoxy)-1,8-naphthyridin-4-yl]oxy]phenyl]-5-(4-fluorophenyl)-1,6-dimethyl-4-oxopyridine-3-carboxamide] | < 100 nM | < 100 nM | > 300 nM | < 100 nM
19 | COc1cc2nccc(Oc3ccc(NC(=O)c4c(C)c(C(N)=O)c(C)n(-c5ccc(F)cc5)c4=O)cc3F)c2nc1OC [Compound 318, 5-N-[4-[(6,7-Dimethoxy-1,5-naphthyridin-4-yl)oxy]-3-fluorophenyl]-1-(4-fluorophenyl)-2,4-dimethyl-6-oxopyridine-3,5-dicarboxamide] | < 100 nM | < 100 nM | > 300 nM | < 100 nM
20 | COc1cnc2c(Oc3ccc(NC(=O)c4c(CO)nc(C)c(-c5ccc(F)cc5)c4O)cc3F)ccnc2c1 [Compound 651, N-[3-fluoro-4-[(7-methoxy-1,5-naphthyridin-4-yl)oxy]phenyl]-5-(4-fluorophenyl)-4-hydroxy-2-(hydroxymethyl)-6-methylpyridine-3-carboxamide] | < 100 nM | < 100 nM | < 100 nM | < 100 nM
